Assay results reported in ChEMBL document CHEMBL4041490, “Discovery of nanomolar ligands with novel scaffolds for the histamine H4 receptor by virtual screening” (Eur J Med Chem, 2017).

Columns and labels:
Histamine H4 receptor [1] = target: T1, Histamine H4 receptor (Homo sapiens, UniProt Q9H3N8); assay: Antagonist activity at H4 receptor in human SH-SY5Y cells assessed as inhibition of imetit-induced GTPgamma[35S] binding at 1 uM after 30 mins by microbeta scintillation counting method relative to control; format: cell-based
T1 sequence (Q9H3N8 whole entry): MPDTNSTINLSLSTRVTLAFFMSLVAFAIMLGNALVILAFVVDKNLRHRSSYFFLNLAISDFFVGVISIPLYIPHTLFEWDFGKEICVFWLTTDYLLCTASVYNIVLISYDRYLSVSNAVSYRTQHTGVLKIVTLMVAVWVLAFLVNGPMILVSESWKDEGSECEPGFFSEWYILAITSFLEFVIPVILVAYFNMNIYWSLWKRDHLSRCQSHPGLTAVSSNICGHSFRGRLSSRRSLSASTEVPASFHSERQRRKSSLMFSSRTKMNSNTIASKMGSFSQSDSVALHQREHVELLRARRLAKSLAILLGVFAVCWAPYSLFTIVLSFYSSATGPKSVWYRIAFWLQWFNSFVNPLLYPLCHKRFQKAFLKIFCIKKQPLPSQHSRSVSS

Histamine H4 receptor [2] = target: T1, Histamine H4 receptor; assay: Antagonist activity at H4 receptor in human SH-SY5Y cells assessed as inhibition of imetit-induced GTPgamma[35S] binding after 30 mins by microbeta scintillation counting method; format: cell-based
Histamine H3 receptor = Histamine H3 receptor (Homo sapiens, UniProt Q9Y5N1); assay: Antagonist activity at H3 receptor (unknown origin)
Sequence of Histamine H3 receptor (Q9Y5N1 whole entry): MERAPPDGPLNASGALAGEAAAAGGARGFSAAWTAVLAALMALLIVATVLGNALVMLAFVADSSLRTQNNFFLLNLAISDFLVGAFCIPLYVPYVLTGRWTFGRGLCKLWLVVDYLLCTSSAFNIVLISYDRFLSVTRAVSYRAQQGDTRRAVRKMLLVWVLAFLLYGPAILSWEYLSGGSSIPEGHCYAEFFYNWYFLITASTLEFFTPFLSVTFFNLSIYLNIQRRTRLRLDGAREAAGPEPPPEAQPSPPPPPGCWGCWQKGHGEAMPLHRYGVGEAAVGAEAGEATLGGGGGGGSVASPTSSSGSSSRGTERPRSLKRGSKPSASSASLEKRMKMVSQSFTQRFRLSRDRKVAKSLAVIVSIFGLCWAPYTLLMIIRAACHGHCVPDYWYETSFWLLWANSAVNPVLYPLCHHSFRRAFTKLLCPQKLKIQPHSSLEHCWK

Histamine H4 receptor [3] = target: T1, Histamine H4 receptor; assay: Antagonist activity at human H4 receptor expressed in CHO cells co-expressing Galphai2 assessed as inhibition of imetit-induced GTPgamma[35S] binding at 1 uM after 30 mins by microbeta scintillation counting method relative to control; format: cell-based
Histamine H4 receptor [4] = target: T1, Histamine H4 receptor; assay: Antagonist activity at human H4 receptor expressed in CHO cells co-expressing Galphai2 assessed as inhibition of imetit-induced GTPgamma[35S] binding after 30 mins by microbeta scintillation counting method; format: cell-based
Histamine H4 receptor [5] = target: T1, Histamine H4 receptor; assay: Agonist activity at human H4 receptor expressed in CHO cell membranes co-expressing Galphai2 at 1 uM by GTPgamma[35S] binding assay
Histamine H4 receptor [6] = target: T1, Histamine H4 receptor; assay: Agonist activity at human H4 receptor expressed in CHO cell membranes co-expressing Galphai2 by GTPgamma[35S] binding assay
[7] = target: Voltage-gated inwardly rectifying potassium channel KCNH2 (Homo sapiens, UniProt Q12809); assay: Inhibition of human ERG
Sequence of Voltage-gated inwardly rectifying potassium channel KCNH2 (Q12809 whole entry): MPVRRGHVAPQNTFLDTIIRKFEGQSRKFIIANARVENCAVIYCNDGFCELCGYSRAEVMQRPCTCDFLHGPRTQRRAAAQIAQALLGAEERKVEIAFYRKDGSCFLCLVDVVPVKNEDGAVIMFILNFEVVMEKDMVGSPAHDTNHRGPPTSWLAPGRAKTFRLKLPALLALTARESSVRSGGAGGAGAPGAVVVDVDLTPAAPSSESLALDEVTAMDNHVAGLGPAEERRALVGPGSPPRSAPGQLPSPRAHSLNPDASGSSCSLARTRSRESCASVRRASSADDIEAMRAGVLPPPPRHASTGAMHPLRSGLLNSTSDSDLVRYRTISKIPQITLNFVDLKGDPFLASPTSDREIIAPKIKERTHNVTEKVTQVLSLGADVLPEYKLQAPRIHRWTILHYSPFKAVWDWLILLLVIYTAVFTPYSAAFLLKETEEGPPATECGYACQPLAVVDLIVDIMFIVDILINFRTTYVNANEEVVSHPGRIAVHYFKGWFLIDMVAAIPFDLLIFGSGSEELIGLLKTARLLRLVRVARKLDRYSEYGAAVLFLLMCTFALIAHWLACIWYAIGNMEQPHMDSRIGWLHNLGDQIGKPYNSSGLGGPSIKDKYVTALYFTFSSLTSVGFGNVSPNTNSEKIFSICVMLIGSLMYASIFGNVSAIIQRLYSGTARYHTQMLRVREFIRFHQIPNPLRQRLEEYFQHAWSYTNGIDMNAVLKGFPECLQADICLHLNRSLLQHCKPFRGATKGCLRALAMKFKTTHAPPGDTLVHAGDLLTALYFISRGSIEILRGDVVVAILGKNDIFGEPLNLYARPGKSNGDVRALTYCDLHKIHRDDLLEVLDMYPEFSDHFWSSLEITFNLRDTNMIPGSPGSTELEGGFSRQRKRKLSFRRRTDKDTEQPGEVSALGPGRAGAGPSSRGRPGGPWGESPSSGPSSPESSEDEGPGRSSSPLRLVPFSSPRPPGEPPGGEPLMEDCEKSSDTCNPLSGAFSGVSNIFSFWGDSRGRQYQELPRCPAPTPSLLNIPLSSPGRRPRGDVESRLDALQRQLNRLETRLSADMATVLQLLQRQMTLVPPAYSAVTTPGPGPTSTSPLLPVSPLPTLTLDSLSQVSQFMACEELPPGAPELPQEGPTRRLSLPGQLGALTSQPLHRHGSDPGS

Histamine H4 receptor [8] = target: T1, Histamine H4 receptor; assay: Antagonist activity at H4 receptor (unknown origin)
D(3) dopamine receptor = D(3) dopamine receptor (Homo sapiens, UniProt P35462); assay: Antagonist activity at D3 receptor (unknown origin)
Sequence of D(3) dopamine receptor (P35462 whole entry): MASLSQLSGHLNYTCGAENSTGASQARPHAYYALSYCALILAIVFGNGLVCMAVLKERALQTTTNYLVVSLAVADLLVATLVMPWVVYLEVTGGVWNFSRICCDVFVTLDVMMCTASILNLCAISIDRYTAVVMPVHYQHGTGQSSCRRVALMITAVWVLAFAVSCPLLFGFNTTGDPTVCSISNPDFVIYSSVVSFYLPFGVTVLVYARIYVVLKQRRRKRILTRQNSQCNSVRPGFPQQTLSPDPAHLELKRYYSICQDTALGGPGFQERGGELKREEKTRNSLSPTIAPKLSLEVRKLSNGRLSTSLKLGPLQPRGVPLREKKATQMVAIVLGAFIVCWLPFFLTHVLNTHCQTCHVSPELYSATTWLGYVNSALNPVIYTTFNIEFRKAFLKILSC

Histamine H4 receptor [9] = target: T1, Histamine H4 receptor; assay: Antagonist activity at human H4 receptor assessed as inhibition of imetit-induced GTPgamma[35S] binding after 30 mins by microbeta scintillation counting method

SMILES | inhibition (Histamine H4 receptor [1]) [%] | Ki (Histamine H4 receptor [2]) [nM] | Ki (Histamine H3 receptor) [nM] | inhibition (Histamine H4 receptor [3]) [%] | Ki (Histamine H4 receptor [4]) [nM] | other results
O=[N+]([O-])c1cccc(C(OCCCc2c[nH]cn2)c2ccccc2)c1 (configuration not stated) | > 20 | 2.7 | 9.6 | – | – | –
Ic1ccc(C(OCCCc2c[nH]cn2)c2ccccc2)cc1 (configuration not stated) | > 20 | 3 | 14 | – | – | –
COc1ccc2c(c1)c(CC(=O)NCCCn1ccnc1)c(C)n2C(=O)c1ccc(Cl)cc1 | – | – | – | > 20 | 4200 | –
FC(F)(F)c1cccc(N2CCN(CCCCNc3nccc4ccccc34)CC2)c1 | > 20 | 5.4 | – | – | – | –
c1ccc(-c2ccc(CCCOCCCc3c[nH]cn3)cc2)cc1 | > 20 | 27 | 118 | – | – | –
COc1ccccc1N1CCN(CCCCNc2nccc3ccccc23)CC1 | > 20 | 51 | – | – | – | –
Brc1ccc(C(OCCCc2c[nH]cn2)c2ccc3ccccc3c2)cc1 (configuration not stated) | > 20 | 4 | 47 | – | – | –
COc1ccc(/C(=N/[C@H](C)Cc2cnc[nH]2)c2ccccc2)c(O)c1 | – | – | – | – | – | Activity (Histamine H4 receptor [5]): > 20%; EC50 (Histamine H4 receptor [6]): 6750 nM
O=C(/C=C/c1ccccc1)c1ccc(OCCCc2c[nH]cn2)cc1 | > 20 | 11 | 8.3 | – | – | –
CC(C)(CN=C(c1ccccc1O)c1ccccc1O)c1c[nH]cn1 | > 20 | 19 | – | – | – | –
O=C(c1ccccc1)c1ccc(OCCCCCN2CCCC2)cc1 | – | – | – | > 20 | 13000 | –
O=C(Nc1cccc2ccccc12)N1CCC(c2c[nH]cn2)CC1 | – | – | – | > 20 | 1090 | –
COc1ccc2c(c1)c(CC(=O)NCCCO)c(C)n2C(=O)c1ccc(Cl)cc1 | – | – | – | – | – | Activity (Histamine H4 receptor [5]): > 20%; EC50 (Histamine H4 receptor [6]): 7780 nM
O=C(NCCCCN1Cc2cccc3cccc(c23)C1)c1ccc2ccccc2c1 | > 20 | 400 | – | – | – | –
O=C(NC(c1ccc(Cl)cc1)c1ccc(Cl)cc1)OCCCc1c[nH]cn1 | > 20 | 14.5 | 258 | – | – | –
c1ccc(C(OCCCc2c[nH]cn2)(c2ccccc2)c2ccccc2)cc1 | – | – | – | > 20 | – | –

SMILES | inhibition (Histamine H4 receptor [1]) [%] | Ki (Histamine H4 receptor [2]) [nM] | Ki (Histamine H3 receptor) [nM] | inhibition (Histamine H4 receptor [3]) [%] | Ki (Histamine H4 receptor [4]) [nM] | other results
O=C(CCNC(=O)C(Cc1ccccc1)Cn1ccnc1)OCc1ccccc1 (configuration not stated) | > 20 | 174 | – | – | – | –
Clc1cccc(N2CCN(CCCCNc3ccc4ccccc4n3)CC2)c1Cl | – | – | – | > 20 | 125 | Ki [7]: 10 nM
CC(=O)SCC(Cc1ccc2c(c1)OCO2)C(=O)NCC(=O)OCc1ccccc1 (configuration not stated) | – | – | – | > 20 | 214 | –
O=C(CCCc1ccc(I)cc1)OCCCc1c[nH]cn1 | – | – | – | > 20 | – | –
O=C(CCCc1ccc(I)cc1)OCCCc1cnc[nH]1 | – | – | 41 | – | 118 | –
O=c1[nH]c2ccccc2n1C1CCN(CCCC(c2ccc(F)cc2)c2ccc(F)cc2)CC1 [PIMOZIDE] | – | – | – | – | – | Ki (Histamine H4 receptor [8]): 2000 nM
Clc1cccc(N2CCN(CCCCNc3nccc4ccccc34)CC2)c1Cl | > 20 | 5.2 | – | – | – | Ki [7]: 30 nM
O=C(O)C(Cc1cccc2ccccc12)NC(=O)[C@@H](CS)Cc1ccccc1 (some centres not stated) | > 20 | 62 | – | – | – | –
O=C(NCCCCN1CCN(c2cccc(Cl)c2Cl)CC1)c1cncc(Br)c1 | – | – | – | – | – | Ki (D(3) dopamine receptor): 2.8 nM; Ki (Histamine H4 receptor [9]): 3100 nM
CC(=O)c1ccc(OCc2ccc(CN3CCCC(C)C3)cc2)cc1 (configuration not stated) | – | – | 22 | > 20 | 16400 | –
CCOC(=O)CN1Cc2ccccc2C[C@@H](NC(=O)C(Cc2ccccc2)C(=O)NO)C1=O (some centres not stated) | – | – | – | > 20 | 3020 | –
Nc1ccc(NCCc2ccc(OCCCN3CCCCC3)cc2)nc1 | – | – | 4.8 | > 20 | 30000 | –
c1ccc(C(OCCCc2c[nH]cn2)c2ccccc2)cc1 | > 20 | 25 | 24 | – | – | Ki [7]: 500 nM
c1ccc(C(OCCCc2cnc[nH]2)(c2ccccc2)c2ccccc2)cc1 | – | – | > 1000 | – | 240 | –
COc1cc2c(cc1OC)C(C)=C(C(=O)NCCCCN1CCN(c3ccccc3F)CC1)C2 | – | – | – | > 20 | 3800 | Ki (D(3) dopamine receptor): 0.5 nM
